From ChEMBL document CHEMBL4390652, “Design, biological evaluation and X-ray crystallography of nanomolar multifunctional ligands targeting simultaneously acetylcholinesterase and glycogen synthase kinase-3” (Eur J Med Chem, 2019)

Legend:
[1] = target: Acetylcholinesterase (Homo sapiens, UniProt P22303); experiment: Inhibition of human recombinant AChE using ATCh as substrate preincubated for 20 mins followed by substrate addition and measured for 3 mins by Ellman method
[2] = target: Cholinesterase (Homo sapiens, UniProt P06276); experiment: Inhibition of human serum BChE using BTCh as substrate preincubated for 20 mins followed by substrate addition and measured for 3 mins by Ellman's method
Cholinesterase, sequence (P06276 whole entry): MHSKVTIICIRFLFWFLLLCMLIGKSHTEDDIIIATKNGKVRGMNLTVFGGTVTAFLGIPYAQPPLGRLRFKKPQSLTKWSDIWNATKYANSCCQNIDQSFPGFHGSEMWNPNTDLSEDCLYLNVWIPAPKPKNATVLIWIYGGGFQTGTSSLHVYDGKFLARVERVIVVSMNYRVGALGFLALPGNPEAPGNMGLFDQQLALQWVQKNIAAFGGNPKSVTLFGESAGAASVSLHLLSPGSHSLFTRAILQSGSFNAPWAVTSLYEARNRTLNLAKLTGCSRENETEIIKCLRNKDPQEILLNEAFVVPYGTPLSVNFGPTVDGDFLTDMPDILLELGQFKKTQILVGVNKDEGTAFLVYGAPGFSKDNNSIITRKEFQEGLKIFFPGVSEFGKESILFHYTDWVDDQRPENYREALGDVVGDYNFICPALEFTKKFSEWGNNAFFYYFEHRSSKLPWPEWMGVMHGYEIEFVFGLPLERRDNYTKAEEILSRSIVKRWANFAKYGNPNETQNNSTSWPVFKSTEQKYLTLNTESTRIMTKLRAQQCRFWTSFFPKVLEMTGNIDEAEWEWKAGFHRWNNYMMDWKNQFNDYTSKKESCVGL

[3] = target: Cyclin-dependent kinase 5/CDK5 activator 1 (Homo sapiens, UniProt Q00535); format: protein-complex assay
Cyclin-dependent kinase 5/CDK5 activator 1, sequence (Q00535 whole entry): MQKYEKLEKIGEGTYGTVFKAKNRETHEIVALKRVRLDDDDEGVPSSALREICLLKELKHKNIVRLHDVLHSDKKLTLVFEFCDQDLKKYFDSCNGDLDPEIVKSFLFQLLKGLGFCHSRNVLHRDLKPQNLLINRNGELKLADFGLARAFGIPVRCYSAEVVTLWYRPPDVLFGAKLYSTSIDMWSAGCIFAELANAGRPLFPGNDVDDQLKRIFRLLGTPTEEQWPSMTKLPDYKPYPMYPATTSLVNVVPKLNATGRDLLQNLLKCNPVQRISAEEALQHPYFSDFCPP
Cyclin-dependent kinase 5/CDK5 activator 1, sequence (Q15078 whole entry, further chain): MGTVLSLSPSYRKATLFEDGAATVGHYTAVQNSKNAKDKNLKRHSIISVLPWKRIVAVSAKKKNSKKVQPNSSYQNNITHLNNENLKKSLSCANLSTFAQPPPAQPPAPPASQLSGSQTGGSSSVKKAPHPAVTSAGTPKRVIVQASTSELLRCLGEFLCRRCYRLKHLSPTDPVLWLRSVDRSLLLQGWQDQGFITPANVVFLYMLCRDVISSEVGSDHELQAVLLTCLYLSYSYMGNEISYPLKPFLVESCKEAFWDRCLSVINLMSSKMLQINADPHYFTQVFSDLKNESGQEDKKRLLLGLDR
Description: Inhibition of human recombinant CDK5/p25 using histone H1 as substrate in presence of [gamma-33P]ATP incubated for 30 mins by liquid scintillation counting assay

[4] = tested on: Huh-7; experiment: Cytotoxicity against human HuH7 cells assessed as growth inhibition incubated for 48 hrs by Hoechst 33342 staining based assay; format: cell-based; conditions: Huh-7, 48 h
[5] = tested on: Caco-2; experiment: Cytotoxicity against human Caco2 cells assessed as growth inhibition incubated for 48 hrs by Hoechst 33342 staining based assay; format: cell-based; conditions: Caco-2, 48 h
[6] = tested on: MDA-MB-231; experiment: Cytotoxicity against human MDA-MB-231 cells assessed as growth inhibition incubated for 48 hrs by Hoechst 33342 staining based assay; format: cell-based; conditions: MDA-MB-231, 48 h
[7] = tested on: HCT-116; experiment: Cytotoxicity against human HCT116 cells assessed as growth inhibition incubated for 48 hrs by Hoechst 33342 staining based assay; format: cell-based; conditions: HCT-116, 48 h
[8] = tested on: PC-3; experiment: Cytotoxicity against human PC3 cells assessed as growth inhibition incubated for 48 hrs by Hoechst 33342 staining based assay; format: cell-based; conditions: PC-3, 48 h
[9] = tested on: NCI-H727; experiment: Cytotoxicity against human NCI-H727 cells assessed as growth inhibition incubated for 48 hrs by Hoechst 33342 staining based assay; format: cell-based; conditions: NCI-H727, 48 h
[10] = target: Glycogen synthase kinase-3 (Sus scrofa, UniProt B2LUN4+I6LNT8)
Description: Inhibition of native porcine brain GSK-3alpha/beta using GS-1 as substrate incubated for 30 mins in presence of [gamma-33P]ATP by liquid scintillation counting assay

[11] = tested on: HaCaT; experiment: Cytotoxicity against human HaCaT cells assessed as growth inhibition incubated for 48 hrs by Hoechst 33342 staining based assay; format: cell-based
[12] = Cytotoxicity against human SH-SY5Y cells assessed as reduction in cell viability at 100 uM incubated for 24 hrs by MTT assay relative to untreated cells; format: cell-based; conditions: read-out: INH
[13] = tested on: SH-SY5Y; experiment: Cytotoxicity against human SH-SY5Y cells assessed as reduction in cell viability incubated for 72 hrs by MTT assay; format: cell-based
[14] = tested on: MDCK-MDR1; experiment: Cytotoxicity against MDCK2-MDR1 cells assessed as reduction in cell viability at 75 uM incubated for 2 hrs by MTT assay; format: ADME, cell-based, Canis lupus familiaris; conditions: dog, mdck-mdr1, 2 h
[15] = tested on: MDR1; experiment: in vitro; conditions: dog, MDCK-MDR1
Description: Apparent permeability across apical to basolateral side in MDCK2-MDR1 cells by HPLC analysis

[16] = tested on: MDR1; experiment: in vitro; conditions: dog, MDCK-MDR1; remark: listed apart in the source
Description: Apparent permeability across basolateral to apical side in MDCK2-MDR1 cells by HPLC analysis

[17] = tested on: MDR1; experiment: in vitro; conditions: dog, MDCK-MDR1; remark: listed apart in the source
Description: Efflux ratio of apparent permeability from basolateral to apical over apical to basolateral side in MDCK2-MDR1 cells by HPLC analysis

Acetylcholinesterase, sequence (P22303 whole entry): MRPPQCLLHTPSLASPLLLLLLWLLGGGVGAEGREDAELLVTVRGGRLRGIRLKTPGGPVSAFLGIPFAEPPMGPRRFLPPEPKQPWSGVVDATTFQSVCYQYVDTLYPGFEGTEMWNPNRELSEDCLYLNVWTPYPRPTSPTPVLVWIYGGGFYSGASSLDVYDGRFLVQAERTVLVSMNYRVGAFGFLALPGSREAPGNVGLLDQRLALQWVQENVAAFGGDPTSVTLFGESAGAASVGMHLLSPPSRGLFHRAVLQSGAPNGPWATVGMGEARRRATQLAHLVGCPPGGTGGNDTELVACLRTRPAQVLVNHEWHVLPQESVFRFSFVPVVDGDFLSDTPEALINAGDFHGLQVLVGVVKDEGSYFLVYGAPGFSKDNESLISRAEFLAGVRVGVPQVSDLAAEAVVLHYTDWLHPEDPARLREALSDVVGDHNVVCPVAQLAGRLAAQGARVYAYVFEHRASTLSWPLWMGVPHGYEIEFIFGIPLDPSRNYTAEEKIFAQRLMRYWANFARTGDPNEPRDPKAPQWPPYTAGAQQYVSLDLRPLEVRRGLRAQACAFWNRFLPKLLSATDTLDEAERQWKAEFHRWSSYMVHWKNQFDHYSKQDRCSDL

Structure (SMILES): O=C(Nc1cc(-c2cn(CCNc3c4c(nc5ccccc35)CCCC4)nn2)ccn1)Nc1cccc2c1[C@@H]1CCCCN1C2=O
- IC50 [1]: 13.7 nM
- IC50 [2]: 254 nM
- IC50 [3]: 1100 nM
- IC50 [4]: 2600 nM
- IC50 [5]: 10000 nM
- IC50 [6]: 4000 nM
- IC50 [7]: 2700 nM
- IC50 [8]: 6000 nM
- IC50 [9]: 7000 nM
- IC50 [10]: 19 nM

Structure (SMILES): O=C(Nc1cc(-c2cn(CCNc3c4c(nc5ccccc35)CCCC4)nn2)ccn1)Nc1cccc2c1[C@H]1CCCCN1C2=O
- IC50 [1]: 9.5 nM
- IC50 [2]: 395 nM
- IC50 [3]: 500 nM
- IC50 [4]: 3500 nM
- IC50 [5]: 8000 nM
- IC50 [6]: 2000 nM
- IC50 [7]: 2200 nM
- IC50 [8]: 3000 nM
- IC50 [9]: 5000 nM
- IC50 [10]: 7 nM

Structure (SMILES): C#Cc1ccnc(NC(=O)Nc2cccc3c2[C@H]2CCCCN2C3=O)c1
- IC50 [3]: 18 nM
- IC50 [10]: 33 nM

Structure (SMILES): C#Cc1ccnc(NC(=O)Nc2cccc3c2[C@@H]2CCCCN2C3=O)c1
- IC50 [3]: 50 nM
- IC50 [10]: 90 nM

Structure (SMILES): c1ccc2c(NCCn3ccnn3)c3c(nc2c1)CCCC3
- IC50 [3]: > 10000 nM
- IC50 [10]: > 10000 nM

Structure (SMILES): C#CCOCc1ccnc(NC(=O)Nc2cccc3c2C2CCCCN2C3=O)c1 (racemic)
- IC50 [3]: 150 nM
- IC50 [10]: 60 nM

Structure (SMILES): C#CCN(C)Cc1ccnc(NC(=O)Nc2cccc3c2C2CCCCN2C3=O)c1 (racemic)
- IC50 [3]: 90 nM
- IC50 [10]: 11 nM

Structure (SMILES): C#Cc1ccc(NC(=O)Nc2cccc3c2C2CCCCN2C3=O)nc1 (racemic)
- IC50 [3]: > 10000 nM
- IC50 [10]: > 10000 nM

Structure (SMILES): CN(Cc1ccnc(NC(=O)Nc2cccc3c2C2CCCCN2C3=O)c1)Cc1cn(CCNc2c3c(nc4ccccc24)CCCC3)nn1 (racemic)
- IC50 [1]: 58.6 nM
- IC50 [2]: 206 nM
- IC50 [3]: 310 nM
- IC50 [4]: 2000 nM
- IC50 [5]: 9000 nM
- IC50 [6]: 2000 nM
- IC50 [7]: 2000 nM
- IC50 [8]: 3000 nM
- IC50 [9]: 4000 nM
- IC50 [11]: 2000 nM
- cytotoxicity at 24 h, 100 µM [12]: 50%
- IC50 [13]: 25000 nM
- Activity [14]: Non-Toxic
- IC50 [10]: 10 nM
- Papp A→B [15]: 10.1 ×10⁻⁶ cm/s
- Papp B→A [16]: 8.4 ×10⁻⁶ cm/s
- efflux ratio [17]: 0.83

Structure (SMILES): O=C(Nc1cc(COCc2cn(CCNc3ccncc3)nn2)ccn1)Nc1cccc2c1C1CCCCN1C2=O (racemic)
- IC50 [3]: 200 nM
- IC50 [10]: 30 nM

Structure (SMILES): C#Cc1cccc(NC(=O)Nc2cccc3c2C2CCCCN2C3=O)n1 (racemic)
- IC50 [3]: 80 nM
- IC50 [10]: 300 nM

Structure (SMILES): C#CCCc1ccnc(NC(=O)Nc2cccc3c2C2CCCCN2C3=O)c1 (racemic)
- IC50 [3]: 70 nM
- IC50 [10]: 15 nM

Structure (SMILES): O=C(Nc1cc(COCc2cn(CCNc3c4c(nc5ccccc35)CCCC4)nn2)ccn1)Nc1cccc2c1C1CCCCN1C2=O (racemic)
- IC50 [1]: 20.8 nM
- IC50 [2]: 169 nM
- IC50 [3]: 300 nM
- IC50 [4]: 4000 nM
- IC50 [5]: 20000 nM
- IC50 [6]: 4000 nM
- IC50 [7]: 4000 nM
- IC50 [8]: 7000 nM
- IC50 [9]: 9000 nM
- IC50 [11]: 4000 nM
- cytotoxicity at 24 h, 100 µM [12]: 50%
- IC50 [13]: 22000 nM
- Activity [14]: Non-Toxic
- IC50 [10]: 10 nM
- Papp A→B [15]: 13.5 ×10⁻⁶ cm/s
- Papp B→A [16]: 20.8 ×10⁻⁶ cm/s
- efflux ratio [17]: 1.54

Structure (SMILES): O=C(Nc1cc(COCc2cn(CCCc3ccccc3)nn2)ccn1)Nc1cccc2c1C1CCCCN1C2=O (racemic)
- IC50 [3]: 260 nM
- IC50 [10]: 8 nM

Structure (SMILES): O=C(Nc1cccc(-c2cn(CCNc3c4c(nc5ccccc35)CCCC4)nn2)n1)Nc1cccc2c1C1CCCCN1C2=O (racemic)
- IC50 [1]: 133 nM
- IC50 [2]: 21.1 nM
- IC50 [3]: 3100 nM
- IC50 [4]: 18000 nM
- IC50 [5]: 24000 nM
- IC50 [6]: 17000 nM
- IC50 [7]: 17000 nM
- IC50 [8]: 27000 nM
- IC50 [9]: > 25000 nM
- IC50 [10]: 4200 nM

Structure (SMILES): Cn1cc(COCc2ccnc(NC(=O)Nc3cccc4c3C3CCCCN3C4=O)c2)nn1 (racemic)
- IC50 [3]: 250 nM
- IC50 [10]: 25 nM

Structure (SMILES): C#Cc1ccnc(NC(=O)Nc2cccc3c2C2CCCCN2C3=O)c1 (racemic)
- IC50 [3]: 68 nM
- IC50 [10]: 41 nM

Structure (SMILES): O=C(Nc1cc(COCc2cn(CCNc3ccnc4ccccc34)nn2)ccn1)Nc1cccc2c1C1CCCCN1C2=O (racemic)
- IC50 [3]: 240 nM
- IC50 [10]: > 10000 nM

Structure (SMILES): O=C(Nc1ccc(-c2cn(CCNc3c4c(nc5ccccc35)CCCC4)nn2)cn1)Nc1cccc2c1C1CCCCN1C2=O (racemic)
- IC50 [1]: 0.8 nM
- IC50 [2]: 185 nM
- IC50 [3]: > 10000 nM
- IC50 [4]: > 25000 nM
- IC50 [5]: > 25000 nM
- IC50 [6]: > 25000 nM
- IC50 [7]: > 25000 nM
- IC50 [8]: > 25000 nM
- IC50 [9]: > 25000 nM
- IC50 [10]: > 10000 nM

Structure (SMILES): O=C(Nc1cc(CCc2cn(CCNc3c4c(nc5ccccc35)CCCC4)nn2)ccn1)Nc1cccc2c1C1CCCCN1C2=O (racemic)
- IC50 [1]: 23.6 nM
- IC50 [2]: 65.7 nM
- IC50 [3]: 800 nM
- IC50 [4]: 2900 nM
- IC50 [5]: 4800 nM
- IC50 [6]: 2000 nM
- IC50 [7]: 1100 nM
- IC50 [8]: 1600 nM
- IC50 [9]: 6300 nM
- IC50 [11]: 1900 nM
- IC50 [10]: 21 nM
